This passage reports inhibition of growth, EC50 and selectivity ratio results from ChEMBL document CHEMBL3217733, “Synthesis of precursors and macrocycle analogs of aerucyclamides as anti-trypanosomal agents” (Medchemcomm, 2012).

Data set [1] relates to Trypanosoma brucei brucei. In words: Antitrypanosomal activity against Trypanosoma brucei brucei strain 427 assessed as growth inhibition at 25 uM. It is filed as functional. The note with it: read-out: GI.
Data set [2] concerns Trypanosoma brucei brucei. The data set is described as follows: Antitrypanosomal activity against infective form of Trypanosoma brucei brucei strain 427 assessed as growth inhibition. It is filed as functional, organism-based.
The subject of data set [3] is J774. The data set is described as follows: Cytotoxicity against […] mouse J774 cells after 24 hrs by WST1 assay. The format is cell-based. The note with it: J774, 24 h. For orientation: Tetrazolium dyes change colour on reduction, which living cells bring about.
Data set [4] can be described thus: Selectivity index, ratio of EC50 for mouse J774 cells to EC50 for infective form of Trypanosoma brucei brucei strain 427. The format is toxicity, cell-based. The note with it: read-out: Ratio EC50.

pEC50: −log10 of the molar value.

As to `CCOC(=O)c1csc(CNC(=O)OC(C)(C)C)n1`, in data set [1], the inhibition of growth at 25 µM came out at 26.4%.
Regarding `CC[C@H](C)[C@H](NC(=O)c1csc(CNC(=O)OC(C)(C)C)n1)c1nc(C(=O)OC)co1`, in data set [1], the inhibition of growth at 25 µM turned out to be 8.1%.
As for `CC[C@H](C)[C@H](NC(=O)c1csc(CNC(=O)OC(C)(C)C)n1)c1nc(C(=O)N[C@H](c2nc(C(=O)OC)co2)[C@@H](C)CC)co1`, in data set [1], the inhibition of growth at 25 µM came out at 18.3%.
Consider `CC[C@H](C)[C@@H]1NC(=O)c2coc(n2)[C@H]([C@@H](C)CC)NC(=O)c2csc(n2)CNC(=O)c2coc1n2`, for which the inhibition of growth at 25 µM in data set [1] was 16.2%.
On the same count and under the same terms, to `CC[C@H](C)[C@H](NC(=O)c1csc([C@@H](NC(=O)OC(C)(C)C)[C@@H](C)CC)n1)c1nc(C(=O)OC)co1` belongs 41.1%.
Same read-out and setting: to `CC[C@H](C)[C@@H]1NC(=O)c2coc(n2)[C@H]([C@@H](C)CC)NC(=O)c2coc(n2)[C@H]([C@@H](C)CC)NC(=O)c2coc1n2` belongs 13.5%.
On to `CC[C@H](C)[C@H](NC(=O)c1csc([C@@H](NC(=O)c2csc(CNC(=O)OC(C)(C)C)n2)[C@@H](C)CC)n1)c1nc(C(=O)OC)co1`, for which the inhibition of growth at 25 µM in data set [1] turned out to be 20.9%.
Turning to `CC[C@H](C)[C@@H]1NC(=O)c2csc(n2)[C@H]([C@@H](C)CC)NC(=O)c2csc(n2)CNC(=O)c2coc1n2`, the inhibition of growth at 25 µM in data set [1] stood at 100%. Also, the figures for the pEC50 in data set [2] and in data set [3] were 4.94 and 4.31, respectively. The selectivity ratio in data set [4] turned out to be 4.3.
For `CC[C@H](C)[C@H](NC(=O)c1csc(CNC(=O)OC(C)(C)C)n1)c1nc(C(=O)OC)cs1`, the inhibition of growth at 25 µM in data set [1] is 11.5%.
Turning to `CC[C@H](C)[C@H](NC(=O)c1csc([C@@H](NC(=O)c2csc(CNC(=O)OC(C)(C)C)n2)[C@@H](C)CC)n1)c1nc(C(=O)OC)c(C)o1`, the inhibition of growth at 25 µM in data set [1] was 79.1%. The pEC50 in data set [2] was 5.22; in data set [3] it was 3.04. The selectivity ratio in data set [4] worked out at 150.
As for `CC[C@H](C)[C@@H]1NC(=O)c2csc(n2)[C@H]([C@@H](C)CC)NC(=O)c2csc(n2)CNC(=O)c2nc1oc2C` [MACROCYCLE], the inhibition of growth at 25 µM in data set [1] came to 41.7%.
In the case of `CN(C)c1ccc2nc3ccc(=[N+](C)C)cc-3sc2c1` [METHYLENE BLUE CATION], the pEC50 in data set [2] is 6.40.

What is called pEC50 is the negative decadic logarithm of the EC50, by convention in mol/L.
